Test results published in the NIST ThermoML archive (doi:10.1016/j.tca.2015.02.020).
Numbers after ± are expanded uncertainties.

Assay: molar heat capacity at constant pressure; xn = mol fraction of the nth substance listed
Conditions: 101 kPa, Small sample (50 mg) DSC

CC(O)CN (stereo unspecified) [1-amino-2-propanol] + O
Conditions | molar heat capacity at constant pressure [J/K/mol]
126.79 K, Glass, x1 = 0.15 | 27.11 ± 5.3
126.79 K, Glass, x1 = 0.16 | 28.24 ± 5.7
126.94 K, Glass, x1 = 0.19 | 28.86 ± 5.8
127.55 K, Glass, x1 = 0.19 | 28.57 ± 1.2
127.56 K, Glass, x1 = 0.26 | 32.53 ± 1.3
127.57 K, Glass, x1 = 0.26 | 32.86 ± 6.6
127.69 K, Glass, x1 = 0.15 | 27.64 ± 1.1
127.71 K, Glass, x1 = 0.16 | 27.96 ± 1.1
127.73 K, Glass, x1 = 0.68 | 51.16 ± 2.3
127.76 K, Glass, x1 = 0.68 | 51.16 ± 10
130.83 K, Glass, x1 = 0.19 | 29.15 ± 1.2
130.83 K, Glass, x1 = 0.26 | 33.19 ± 1.3
130.96 K, Glass, x1 = 0.15 | 28.71 ± 1.3
130.98 K, Glass, x1 = 0.16 | 28.51 ± 1.4
131 K, Glass, x1 = 0.68 | 52.86 ± 2.3
131.45 K, Glass, x1 = 0.15 | 28.71 ± 5.8
131.45 K, Glass, x1 = 0.16 | 30.14 ± 6
131.61 K, Glass, x1 = 0.19 | 30.31 ± 6.1
132.23 K, Glass, x1 = 0.26 | 34.17 ± 6.9
132.42 K, Glass, x1 = 0.68 | 52.29 ± 10
134.1 K, Glass, x1 = 0.19 | 29.73 ± 1.2
134.1 K, Glass, x1 = 0.26 | 33.85 ± 1.3
134.24 K, Glass, x1 = 0.15 | 29.5 ± 1.3
134.25 K, Glass, x1 = 0.16 | 29.05 ± 1.4
134.27 K, Glass, x1 = 0.68 | 54 ± 2.3
136.13 K, Glass, x1 = 0.15 | 30.3 ± 6.1
136.13 K, Glass, x1 = 0.16 | 31.77 ± 6.2
136.28 K, Glass, x1 = 0.19 | 32.04 ± 6.3
136.9 K, Glass, x1 = 0.26 | 35.49 ± 7.2
137.09 K, Glass, x1 = 0.68 | 54.57 ± 11
140.66 K, Glass, x1 = 0.19 | 31.17 ± 1.4
140.66 K, Glass, x1 = 0.26 | 35.49 ± 1.6
140.8 K, Glass, x1 = 0.15 | 30.83 ± 1.3
140.8 K, Glass, x1 = 0.16 | 33.39 ± 6.8
140.81 K, Glass, x1 = 0.15 | 31.63 ± 6.4
140.81 K, Glass, x1 = 0.16 | 30.41 ± 1.4
140.83 K, Glass, x1 = 0.68 | 56.27 ± 2.3
140.96 K, Glass, x1 = 0.19 | 32.9 ± 6.6
141.59 K, Glass, x1 = 0.26 | 36.8 ± 7.2
141.77 K, Glass, x1 = 0.68 | 55.7 ± 11
143.95 K, Glass, x1 = 0.19 | 31.75 ± 1.4
143.95 K, Glass, x1 = 0.26 | 36.15 ± 1.6
144.09 K, Glass, x1 = 0.15 | 31.63 ± 1.3
144.1 K, Glass, x1 = 0.16 | 30.95 ± 1.4
144.11 K, Glass, x1 = 0.68 | 57.41 ± 2.3
145.5 K, Glass, x1 = 0.16 | 34.75 ± 7.1
145.65 K, Glass, x1 = 0.19 | 34.35 ± 6.9
146.28 K, Glass, x1 = 0.26 | 38.12 ± 7.6
146.29 K, Glass, x1 = 0.15 | 33.22 ± 6.6
146.45 K, Glass, x1 = 0.68 | 56.84 ± 11
150.19 K, Glass, x1 = 0.16 | 36.11 ± 7.3
150.34 K, Glass, x1 = 0.19 | 35.5 ± 7.2
150.53 K, Glass, x1 = 0.19 | 33.48 ± 1.4
150.53 K, Glass, x1 = 0.26 | 38.12 ± 1.6
150.67 K, Glass, x1 = 0.15 | 33.22 ± 1.3
150.68 K, Glass, x1 = 0.16 | 32.31 ± 1.4
150.69 K, Glass, x1 = 0.68 | 59.68 ± 2.3
150.97 K, Glass, x1 = 0.26 | 39.1 ± 7.9
150.99 K, Glass, x1 = 0.15 | 34.29 ± 6.9
151.15 K, Glass, x1 = 0.68 | 57.98 ± 11
153.82 K, Glass, x1 = 0.19 | 34.06 ± 1.4
153.82 K, Glass, x1 = 0.26 | 39.1 ± 1.6
153.96 K, Glass, x1 = 0.15 | 34.02 ± 1.6
153.98 K, Glass, x1 = 0.16 | 33.12 ± 1.4
153.98 K, Glass, x1 = 0.68 | 60.82 ± 2.8
155.68 K, Glass, x1 = 0.15 | 35.88 ± 7.2
155.68 K, Glass, x1 = 0.16 | 37.74 ± 7.6
155.68 K, Glass, x1 = 0.19 | 36.94 ± 7.5
155.68 K, Glass, x1 = 0.26 | 40.42 ± 8.2
155.84 K, Glass, x1 = 0.68 | 59.11 ± 12
160.38 K, Glass, x1 = 0.16 | 40.45 ± 8.1
160.38 K, Glass, x1 = 0.19 | 38.97 ± 7.8
160.38 K, Glass, x1 = 0.26 | 42.39 ± 8.5
160.4 K, Glass, x1 = 0.15 | 39.07 ± 7.7
160.41 K, Glass, x1 = 0.19 | 35.79 ± 1.4
160.41 K, Glass, x1 = 0.26 | 41.07 ± 1.6
160.54 K, Glass, x1 = 0.68 | 60.82 ± 12
160.55 K, Glass, x1 = 0.15 | 35.88 ± 1.6
160.56 K, Glass, x1 = 0.16 | 34.48 ± 1.4
160.57 K, Glass, x1 = 0.68 | 63.09 ± 2.8
163.7 K, Glass, x1 = 0.19 | 36.66 ± 1.4
163.7 K, Glass, x1 = 0.26 | 42.39 ± 2
163.84 K, Glass, x1 = 0.15 | 37.74 ± 1.6
163.85 K, Glass, x1 = 0.16 | 35.57 ± 1.6
163.85 K, Glass, x1 = 0.68 | 64.8 ± 2.8
165.08 K, Glass, x1 = 0.19 | 42.72 ± 8.7
165.08 K, Glass, x1 = 0.26 | 45.68 ± 9.2
165.25 K, Glass, x1 = 0.68 | 64.8 ± 13
170.29 K, Glass, x1 = 0.19 | 40.7 ± 1.7
170.3 K, Glass, x1 = 0.26 | 46 ± 2
170.45 K, Glass, x1 = 0.68 | 68.21 ± 2.8
173.75 K, Glass, x1 = 0.68 | 73.89 ± 3.4
183.93 K, Liquid, x1 = 0.26 | 85.44 ± 17
184.09 K, Liquid, x1 = 0.68 | 124.48 ± 25
188.66 K, Liquid, x1 = 0.26 | 85.11 ± 17
188.82 K, Liquid, x1 = 0.68 | 125.62 ± 25
190.11 K, Liquid, x1 = 0.19 | 83.13 ± 3.5
190.11 K, Liquid, x1 = 0.26 | 88.06 ± 3.6
190.26 K, Liquid, x1 = 0.15 | 76.81 ± 3.2
190.26 K, Liquid, x1 = 0.68 | 135.28 ± 5.7
190.27 K, Liquid, x1 = 0.16 | 77.92 ± 3.3
193.38 K, Liquid, x1 = 0.26 | 84.78 ± 17
193.42 K, Liquid, x1 = 0.19 | 81.97 ± 3.5
193.42 K, Liquid, x1 = 0.26 | 87.74 ± 3.6
193.54 K, Liquid, x1 = 0.68 | 126.75 ± 26
193.57 K, Liquid, x1 = 0.15 | 76.28 ± 3.2
193.58 K, Liquid, x1 = 0.16 | 77.11 ± 3.3
193.58 K, Liquid, x1 = 0.68 | 135.28 ± 5.7
198.11 K, Liquid, x1 = 0.16 | 79.01 ± 16
198.11 K, Liquid, x1 = 0.26 | 84.78 ± 17
198.13 K, Liquid, x1 = 0.15 | 73.89 ± 15
198.27 K, Liquid, x1 = 0.68 | 126.75 ± 26
200.05 K, Liquid, x1 = 0.19 | 80.53 ± 3.5
200.05 K, Liquid, x1 = 0.26 | 87.74 ± 3.6
200.19 K, Liquid, x1 = 0.15 | 76.02 ± 3.2
200.19 K, Liquid, x1 = 0.68 | 136.41 ± 5.7
200.2 K, Liquid, x1 = 0.16 | 76.29 ± 3.3
202.84 K, Liquid, x1 = 0.19 | 80.53 ± 16
202.84 K, Liquid, x1 = 0.26 | 85.44 ± 17
202.85 K, Liquid, x1 = 0.16 | 79.28 ± 16
202.87 K, Liquid, x1 = 0.15 | 74.69 ± 15
203 K, Liquid, x1 = 0.68 | 126.75 ± 26
203.35 K, Liquid, x1 = 0.19 | 80.24 ± 3.5
203.36 K, Liquid, x1 = 0.26 | 88.06 ± 3.6
203.5 K, Liquid, x1 = 0.15 | 75.75 ± 3.2
203.5 K, Liquid, x1 = 0.68 | 136.98 ± 5.7
203.51 K, Liquid, x1 = 0.16 | 76.29 ± 3.3
207.57 K, Liquid, x1 = 0.19 | 80.82 ± 16
207.57 K, Liquid, x1 = 0.26 | 86.42 ± 17
207.58 K, Liquid, x1 = 0.16 | 79.82 ± 16
207.6 K, Liquid, x1 = 0.15 | 75.49 ± 15
